± gives the standard deviation of the averaged measurements.
Legend:
[1] = test system: UT-SCC-8; assay: relative IC50 (midpoint of the fitted curve; maximal inhibition may be below 50%); higher = less potent; conditions: culture condition: embedded in Myogel + collagen I; treatment time: 3 days
Summary of the method: (§1)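 Viability of HPV-negative HNSCC cell lines was measured by CellTiter-Glo 2.0 luminescence. Cells were seeded at 500 cells/well in 384-well plates on plastic, on Matrigel- or Myogel-coated wells (500 µg/mL), or embedded in Matrigel or Myogel plus rat collagen I, then given compounds at five 10-fold concentrations for 3 days, with signals normalised to vehicle (0.1% DMSO) and cell-killing control wells. Fitting of percent-inhibition dose–response curves in the FIMM pipeline yielded IC50, maximal inhibition and drug sensitivity score.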

[2] = test system: UT-SCC-73; assay: as above; conditions: treatment time: 3 days
Summary of the method: as §1

[3] = test system: UT-SCC-40; assay: as above; conditions: treatment time: 3 days
Summary of the method: as §1

[4] = test system: UT-SCC-28; assay: as above; conditions: culture condition: embedded in Myogel + collagen I; treatment time: 3 days
Summary of the method: as §1

[5] = test system: UT-SCC-42A; assay: as above; conditions: treatment time: 3 days
Summary of the method: as §1

[6] = test system: UT-SCC-81; assay: as above; conditions: treatment time: 3 days
Summary of the method: as §1

[7] = test system: UT-SCC-106A; assay: as above; conditions: treatment time: 3 days
Summary of the method: as §1

[8] = test system: UT-SCC-24B; assay: as above; conditions: culture condition: embedded in Myogel + collagen I; treatment time: 3 days
Summary of the method: as §1

[9] = test system: UT-SCC-42B; assay: as above; conditions: culture condition: on top of Myogel; treatment time: 3 days
Summary of the method: as §1

[10] = test system: UT-SCC-44; assay: as above; conditions: treatment time: 3 days
Summary of the method: as §1

[11] = test system: UT-SCC-14; assay: as above; conditions: treatment time: 3 days
Summary of the method: as §1

[12] = test system: UT-SCC-8; assay: maximal % inhibition of viability relative to DMSO; higher = stronger effect; conditions: treatment time: 3 days
Summary of the method: as §1

[13] = test system: UT-SCC-73; assay: as above; conditions: treatment time: 3 days
Summary of the method: as §1

[14] = test system: UT-SCC-40; assay: as above; conditions: treatment time: 3 days
Summary of the method: as §1

[15] = test system: UT-SCC-28; assay: as above; conditions: treatment time: 3 days
Summary of the method: as §1

[16] = test system: UT-SCC-42A; assay: as above; conditions: treatment time: 3 days
Summary of the method: as §1

[17] = test system: UT-SCC-106A; assay: as above; conditions: treatment time: 3 days
Summary of the method: as §1

[18] = test system: UT-SCC-24B; assay: as above; conditions: treatment time: 3 days
Summary of the method: as §1

[19] = test system: UT-SCC-44; assay: as above; conditions: treatment time: 3 days
Summary of the method: as §1

[20] = culture condition: on top of Matrigel
[21] = culture condition: on top of Myogel
[22] = culture condition: plastic 2D (no matrix)
[23] = culture condition: embedded in Matrigel
[24] = culture condition: embedded in Myogel + collagen I

## CO[C@H]1C[C@@H]2CC[C@@H](C)[C@@](O)(O2)C(=O)C(=O)N2CCCC[C@H]2C(=O)O[C@H]([C@H](C)C[C@@H]2CC[C@@H](OP(C)(C)=O)[C@H](OC)C2)CC(=O)[C@H](C)/C=C(\C)[C@@H](O)[C@@H](OC)C(=O)[C@H](C)C[C@H](C)/C=C/C=C/C=C/1C [Ridaforolimus]
[1]
  relative IC50: 6.75 nM
[2]; [20]
  relative IC50: 0.734 nM
[2]; [21]
  relative IC50: 1.48 nM
[2]; [22]
  relative IC50: 3 nM
[3]; [23]
  relative IC50: 2.37 nM
[3]; [21]
  relative IC50: 1.94 nM
[3]; [22]
  relative IC50: 1.94 nM
[4]
  relative IC50: 4.01 nM
[5]; [23]
  relative IC50: 6.44 nM
[5]; [24]
  relative IC50: 6.31 nM
[5]; [20]
  relative IC50: 1.65 nM
[5]; [22]
  relative IC50: 4.54 nM
[6]; [24]
  relative IC50: 2.46 nM
[6]; [20]
  relative IC50: 1.38 nM
[7]; [23]
  relative IC50: 6.54 nM
[7]; [21]
  relative IC50: 8.68 nM
[8]
  relative IC50: 1.48 nM
[9]
  relative IC50: 17.4 nM
[10]; [23]
  relative IC50: 0.909 nM
[10]; [24]
  relative IC50: 4.16 nM
[10]; [21]
  relative IC50: 0.271 nM
[11]; [23]
  relative IC50: 0.761 nM
[11]; [24]
  relative IC50: 0.711 nM
[11]; [21]
  relative IC50: 0.632 nM
[11]; [22]
  relative IC50: 0.876 nM
[12]; [23]
  maximal % inhibition of viability: 45 ± 7%
[12]; [24]
  maximal % inhibition of viability: 33.2 ± 7.1%
[12]; [20]
  maximal % inhibition of viability: 38.4 ± 1.7%
[12]; [21]
  maximal % inhibition of viability: 49.2 ± 8.1%
[12]; [22]
  maximal % inhibition of viability: 46.9 ± 5.1%
[13]; [23]
  maximal % inhibition of viability: 38.7 ± 16%
[13]; [24]
  maximal % inhibition of viability: 42.4 ± 11%
[13]; [20]
  maximal % inhibition of viability: 30.6 ± 3.4%
[13]; [21]
  maximal % inhibition of viability: 40.2 ± 1.8%
[13]; [22]
  maximal % inhibition of viability: 31.5 ± 4.3%
[14]; [23]
  maximal % inhibition of viability: 29.4 ± 6.9%
[14]; [24]
  maximal % inhibition of viability: 39 ± 9.4%
[14]; [20]
  maximal % inhibition of viability: 27 ± 5.7%
[14]; [21]
  maximal % inhibition of viability: 27.4 ± 1.4%
[14]; [22]
  maximal % inhibition of viability: 22.4 ± 1.4%
[15]; [23]
  maximal % inhibition of viability: 30.9 ± 9.3%
[15]; [24]
  maximal % inhibition of viability: 31.5 ± 18%
[15]; [20]
  maximal % inhibition of viability: 34.8 ± 4.5%
[15]; [22]
  maximal % inhibition of viability: 33.4 ± 2.9%
[16]; [23]
  maximal % inhibition of viability: 29.5 ± 6.2%
[16]; [24]
  maximal % inhibition of viability: 42.7 ± 5%
[16]; [20]
  maximal % inhibition of viability: 33.3 ± 2.6%
[16]; [21]
  maximal % inhibition of viability: 37.1 ± 6.1%
[16]; [22]
  maximal % inhibition of viability: 35.8 ± 5%
[17]; [23]
  maximal % inhibition of viability: 35 ± 4.2%
[17]; [24]
  maximal % inhibition of viability: 27.4 ± 2.9%
[17]; [20]
  maximal % inhibition of viability: 34.5 ± 4%
[17]; [21]
  maximal % inhibition of viability: 27.5 ± 2.6%
[17]; [22]
  maximal % inhibition of viability: 41 ± 1.9%
[18]; [23]
  maximal % inhibition of viability: 21.4 ± 6.2%
[18]; [24]
  maximal % inhibition of viability: 38.1 ± 5.8%
[18]; [20]
  maximal % inhibition of viability: 26.7 ± 6.1%
[18]; [21]
  maximal % inhibition of viability: 31.1 ± 7.1%
[18]; [22]
  maximal % inhibition of viability: 27.4 ± 3.4%
[19]; [23]
  maximal % inhibition of viability: 32.8 ± 14%
[19]; [24]
  maximal % inhibition of viability: 44.1 ± 8.6%
[19]; [20]
  maximal % inhibition of viability: 39.2 ± 2.1%
[19]; [21]
  maximal % inhibition of viability: 36.9 ± 4.2%
[19]; [22]
  maximal % inhibition of viability: 33.7 ± 6.2%
